Measurements reported in patent US7429397B2, “Herbal formulation as memory enhancer in Alzheimer condition” (Council of Scientific and Industrial Research, priority 2004, dated 2008).
Marks after values point to notes of the source that are not given here.

Tests used:
[1] = system: λ carrageenin induced edema in rats; experiment: λ carrageenin induced paw edema; type: in vivo
Description: Carrageenin induced paw edema: Rats were injected with 0.1 ml of 1% λ carrageenin (St.-Louis, Mo.) into the subplantar side of the left hind paw. The paw was marked with ink at the level of the lateral malleolus and dipped in perspex cell up to this mark. The paw volume was measured with an Ugo Basile Plethysmometer (No: 61402) (7140 Comerio-varese, Italy) immediately and 3 h after injecting the λ carrageenin suspension. […] Significant reductions in the paw volume compared to vehicle treated control animals were considered as anti-inflammatory response. Percentage inhibition of oedema was calculated as follows: % Inhibition=(1−VT/VC)×100 VT=Paw volume in drug treated rats, VC=Paw volume in control group of rats.

[2] = system: impairment of memory acquisition in step-down test in rats (scopolamine); experiment: Passive avoidance task (step-down test), scopolamine-induced impairment of memory acquisition; type: in vivo
Description: Passive avoidance task (step-down test): A step-down passive avoidance was examined using apparatus consisted of a box (25×25×40 cm), a floor with stainless-steel grid 2 mm in diameter at 8-mm intervals, and a rubber platform (4 cm diameter, 4 cm height) set on the grid in one corner. Electric stimulation was given through the grid connected with a scrambled shock generator. […] For this trial, each rat was placed gently on the platform and allowed to habituate freely for 3 min, and then electric shock (0.4 mA) were delivered to the grid. If the rat stepped down from the platform, the electric shock was delivered to the rat on the grid floor. The cut off time was 2 min. A retention trail was performed 24 hr after the acquisition trail. Each rat was again placed on the platform. Time (step-down latency) that elapsed until rats stepped down from the electric grid of the platform to shock free zone was recorded. […] An error was counted when ever the rat stepped down from platform. The number of error made in 2 min was recorded.

COc1ccc2c(c1)c(CC(=O)O)c(C)n2C(=O)c1ccc(Cl)cc1 [Indomethacin]
Paw volume (ml) at 3 h λ carrageenin ([1]; 100 mg/kg orally 1 h before carrageenin, six rats, mean ± SEM): 0.18 ± 0.02^c ml | inhibition at 100 mg/kg ([1]; Rattus norvegicus, inhibition of paw oedema at 3 h vs control, 100 mg/kg, (1−VT/VC)×100): 79.3%

CN1[C@@H]2C[C@@H](OC(=O)[C@H](CO)c3ccccc3)C[C@H]1[C@@H]1O[C@@H]12 [Scopolamine]
number of mistakes and latency period (in words) ([2]; scopolamine treated group): significant increase in the number of mistakes as well as increase the latency period | Latency ([2]; step-down test, rats n=10, scopolamine 0.4 mg/kg i.p., formulations 100 mg/kg, tacrine dose not given, mean ± S.E.M.): 8.8 ± 0.03 s
